Results published in PubChem BioAssay (NCI).
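All cell lines were grown in 96-well plates and treated with compound for 48 hours. GI50 is the concentration that inhibits growth by half. The concentration for full growth arrest is given as TGI.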

How the values were obtained:
Assay in all cases: NCI tumour cell line growth inhibition, 48 h
[1] = test system: NCI-H226 lung
[2] = test system: UACC-257 melanoma
[3] = test system: 786-0 renal
[4] = test system: SR leukemia
[5] = test system: SF-295 CNS
[6] = test system: SF-268 CNS
[7] = test system: UACC-62 melanoma
[8] = test system: NCI-H23 lung
[9] = test system: MDA-MB-231 breast
[10] = test system: RPMI-8226 leukemia

For COc1ccc(C(=O)c2ccccc2)c(O)c1, the GI50 [1] was > 100 µM, the TGI [1] was > 100 µM and the GI50 [2] was > 100 µM. For the same molecule, the TGI [2] was > 100 µM, the GI50 [3] was > 100 µM and the TGI [3] was > 100 µM. The GI50 [4] was 45.7 µM, the TGI [4] was > 100 µM and the GI50 [5] was 36 µM. For the same molecule, the TGI [5] was > 100 µM, the GI50 [6] was 55.2 µM and the TGI [6] was > 100 µM. The GI50 [7] was 57.1 µM, the TGI [7] was > 100 µM and the GI50 [8] was > 100 µM. The TGI [8] was > 100 µM, the GI50 [9] was > 100 µM and the TGI [9] was > 100 µM. The GI50 [10] was 82.2 µM and the TGI [10] was > 100 µM.

N#C/C(=C/C=C/c1cccc(Cl)c1)S(=O)c1ccccc1 (stereo not given) showed a GI50 [1] of 1.14 µM, a TGI [1] of 3.68 µM and a GI50 [2] of 1.64 µM. The TGI [2] was 3.16 µM, the GI50 [3] was 0.308 µM and the TGI [3] was 1.01 µM. The GI50 [4] was 0.227 µM, the TGI [4] was 2.67 µM and the GI50 [5] was 1.3 µM. The TGI [5] was 2.88 µM, the GI50 [6] was 0.391 µM and the TGI [6] was 2.14 µM. The GI50 [7] was 1.14 µM, the TGI [7] was 2.69 µM and the GI50 [8] was 0.42 µM. It also gave a TGI [8] of 1.74 µM, a GI50 [9] of 0.384 µM and a TGI [9] of 1.4 µM. For the same molecule, the GI50 [10] was 0.339 µM and the TGI [10] was 1 µM.

In the case of CC(=O)c1nc(-c2ccc(C[C@@H](CNC(=O)CN(C)C)NC(=O)c3ccc(OC(C)C)c(Cl)c3)cc2)cn1C, the GI50 [1] is reported as 12.6 µM, the TGI [1] is reported as 33.9 µM and the GI50 [2] is reported as 9.58 µM. For the same molecule, the TGI [2] was 24.3 µM, the GI50 [3] was 0.0851 µM and the TGI [3] was 17.1 µM. It also gave a GI50 [4] of 0.0506 µM, a TGI [4] of 12.6 µM and a GI50 [5] of 0.0338 µM. The TGI [5] was 7.75 µM, the GI50 [6] was 0.242 µM and the TGI [6] was 22.7 µM. The GI50 [7] was 0.0587 µM, the TGI [7] was 19.1 µM and the GI50 [8] was 0.0647 µM. For the same molecule, the TGI [8] was 21.1 µM, the GI50 [9] was 0.0535 µM and the TGI [9] was 8.75 µM. For the same molecule, the GI50 [10] was 0.0413 µM and the TGI [10] was 23.2 µM.

CCOc1ccc2cc(-c3nn(CC4CCN(C)CC4)c4ncnc(N)c34)ccc2c1 showed a GI50 [1] of 14.2 µM, a TGI [1] of 40.3 µM and a GI50 [2] of 14.7 µM. For the same molecule, the TGI [2] was 30.2 µM, the GI50 [3] was 14.5 µM and the TGI [3] was 29.7 µM. The GI50 [4] was 3.63 µM, the TGI [4] was 18 µM and the GI50 [5] was 14.5 µM. For the same molecule, the TGI [5] was 29.2 µM, the GI50 [6] was 13.7 µM and the TGI [6] was 30.2 µM. It also gave a GI50 [7] of 16.3 µM, a TGI [7] of 32.5 µM and a GI50 [8] of 15.1 µM. The TGI [8] was 41.6 µM, the GI50 [9] was 4.52 µM and the TGI [9] was 18.4 µM. For the same molecule, the GI50 [10] was 10.3 µM and the TGI [10] was 30.5 µM.

In the case of COc1ccc2c(c1)[n+](=O)c(/C=C/C(=O)c1cc(OC)c(OC)c(OC)c1)c(C)n2[O-], the GI50 [1] is reported as 22.1 µM, the TGI [1] is reported as > 100 µM and the GI50 [2] is reported as 9.61 µM. For the same molecule, the TGI [2] was > 100 µM, the GI50 [3] was 13.7 µM and the TGI [3] was 50.3 µM. For the same molecule, the GI50 [4] was 0.644 µM, the TGI [4] was 2.41 µM and the GI50 [5] was 44.8 µM. The TGI [5] was > 100 µM, the GI50 [6] was 6.11 µM and the TGI [6] was 45.6 µM. For the same molecule, the GI50 [7] was 2.9 µM, the TGI [7] was 14.1 µM and the GI50 [8] was 13.7 µM. For the same molecule, the TGI [8] was 34 µM, the GI50 [9] was 12.6 µM and the TGI [9] was 88.4 µM. It also gave a GI50 [10] of 3.05 µM and a TGI [10] of 15.6 µM.

O=C1C=C(NCCc2ccccc2)c2ccccc2C1=O was tested, and the TGI [1] was 4.61 µM, the TGI [2] was 2.93 µM and the TGI [3] was 16.6 µM. For the same molecule, the TGI [4] was 43.3 µM, the TGI [5] was 4.76 µM and the TGI [6] was 23.1 µM. The TGI [7] was 3.34 µM, the TGI [8] was 5.67 µM and the TGI [9] was 42.8 µM. It also gave a TGI [10] of 67.5 µM.

COc1ccc(C2=NNC(c3sc(Cl)nc3Cl)C2)cc1 (stereo not given) was tested, and the GI50 [1] was 2.85 µM, the TGI [1] was > 100 µM and the GI50 [2] was 16 µM. For the same molecule, the TGI [2] was 36.2 µM, the GI50 [3] was 4.06 µM and the TGI [3] was > 100 µM. It also gave a GI50 [4] of 2.54 µM, a TGI [4] of 19.7 µM and a GI50 [5] of 25.1 µM. It also gave a TGI [5] of 77.9 µM, a GI50 [6] of 5.65 µM and a TGI [6] of 27.5 µM. It also gave a GI50 [7] of 6.94 µM, a TGI [7] of 21.1 µM and a GI50 [8] of 10.6 µM. It also gave a TGI [8] of 26.7 µM, a GI50 [9] of 3.12 µM and a TGI [9] of 14 µM. It also gave a GI50 [10] of 3.86 µM and a TGI [10] of 19.2 µM.
